pIC50, pKi: −log10 of the molar value.
Target: T1, human MCT1 (SLC16A1) (Homo sapiens, UniProt P53985)
T1 construct: host or cells: MDCK-II
T1 sequence (P53985 1-500): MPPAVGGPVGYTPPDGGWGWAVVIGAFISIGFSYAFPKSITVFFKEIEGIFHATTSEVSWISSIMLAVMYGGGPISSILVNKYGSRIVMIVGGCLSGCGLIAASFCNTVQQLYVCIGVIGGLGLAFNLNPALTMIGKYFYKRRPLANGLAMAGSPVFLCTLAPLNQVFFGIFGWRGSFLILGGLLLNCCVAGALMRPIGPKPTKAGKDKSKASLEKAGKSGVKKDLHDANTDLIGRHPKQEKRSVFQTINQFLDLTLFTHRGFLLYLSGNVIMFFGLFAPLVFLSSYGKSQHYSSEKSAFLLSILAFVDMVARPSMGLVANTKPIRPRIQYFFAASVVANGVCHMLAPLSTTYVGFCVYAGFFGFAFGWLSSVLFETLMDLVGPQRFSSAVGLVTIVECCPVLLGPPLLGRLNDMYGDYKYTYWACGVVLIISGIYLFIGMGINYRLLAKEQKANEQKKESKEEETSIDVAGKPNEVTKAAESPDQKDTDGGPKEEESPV
Assay: Inhibition of MCT1 uptake of probe substrate 2-thiophene glyoxylate in MDCK-II cells
Format: cell-based
Method: Transport studies with human PepT1 (SLC15A1), LAT1 (SLC7A5) and MCT1 (SLC16A1) were conducted in MDCK-II cells expressing the human transporter or control cells expressing a vector with Green Fluorescence Protein. Cells were transfected using a proprietary, transient transfection system (OPTI-EXPRESSION Technology, BioIVT). The results from the control cells were used to correct for substrate permeation by routes other than the transporter being investigated in the study. […] Specifically, Net Transporter Mediated Substrate Uptake (pmol/min/cm^2) = (Cellular accumulation in the presence of the transporter) − (Mean cellular accumulation in the absence of the transporter). MDCK-II cells were maintained in DMEM with low glucose and 10% FBS. Cells were used at passages up to 40 were seeded at 60,000 ± 10,000 cells/well on 96-well plates approximately 24 h before transfection, and transport assays were performed approximately 48 h after transfection. Transport studies in MDCK-II cells were conducted in 96-well insert plates with permeable membrane (0.4 µm) and receiver tray (Millipore MultiScreen Filter 96-well).
Transport studies with PepT1 were conducted in 96-well cell culture plate with wells containing a monolayer of MDCK-II cells grown on a permeable support and a corresponding 96-well receiver tray. Cell plates are maintained at 37 °C in 5% CO2 atmosphere prior to initiation of the transport experiment. Pre-incubation was conducted in HBSS, pH 7.4. The transport experiments were conducted in HBSS with Bis–Tris, pH 5.5, without phenol red. Both pre-incubation and incubation were conducted at 37 °C. All final assay solutions of probe substrate, reference inhibitor or test article contain 0.5% (v/v) DMSO (vehicle control). The culture plate insert […] was washed with warm HBSS three times and then blotted dry. The culture plate wells […] were washed with warm HBSS three times. 100 µL of 37 °C HBSS pH 7.4 pre-incubation buffer to the apical compartment as follows: for the probe substrate transport assay, the HBSS contains vehicle; for the reference inhibition assay, the HBSS contains the reference inhibitor at the required concentration; for the test article assays, the HBSS in each well contains test compound at the specified concentration. The plates were incubated at 37 °C with orbital shaking at approximately 60 rpm for the pre-incubation (30 min), aspirated and then 100 µL of the experimental buffer was added. […] Then a 30-µL sample was taken and mixed with 200 µL of scintillation fluid and scintillation counted (1450 Microbeta, Perkin-Elmer). […]

`CC(=O)N[C@@H](CC(C)C)C(=O)O` [N-acetyl-L-leucine] was tested, and the pKi (Cheng-Prusoff equation from IC50, competitive inhibition assumed, read-out: affinity (Ki) MCT1) was 2.37 and the pIC50 (probe 2-thiophene glyoxylate 500 µM, positive control phloretin 500 µM) was 1.82.

Reference: PMC8338929, “Acetylation turns leucine into a drug by membrane transporter switching” (Scientific Reports, 2021)
